Patent publication US9938322B2, “β-hairpin peptidomimetics” (priority 2013, dated 2018)
Where a SMILES comes first, the peptide text is derived from it. [ ]: non-standard residue; d: D form. Phe(4-NH2) = Nc1ccc(C[C@H](N)C(=O)O)cc1; Cha = N[C@@H](CC1CCCCC1)C(=O)O; Chg = N[C@H](C(=O)O)C1CCCCC1; Tle = CC(C)(C)[C@H](N)C(=O)O; dDab = NCC[C@@H](N)C(=O)O; Orn = NCCC[C@H](N)C(=O)O; Dab = NCC[C@H](N)C(=O)O; Nva = CCC[C@H](N)C(=O)O; Dap = NC[C@H](N)C(=O)O

These compounds were tested on human red blood cells (hRBC) (assay: Hemolysis of human red blood cells). Conditions: red cells of human, 1 h, 100.
Format: cell-based
How it was run: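 Washed fresh human erythrocytes (20% v/v, about 0.9×10^9 cells/ml final) incubated with peptide at 100 μg/ml for 1 h at 37° C with shaking. Supernatant OD540 read; hemolysis expressed relative to 2.5% Triton X-100 (100%) and PBS with 0.001% acetic acid (0%).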
`CCC[C@@H]1NC(=O)[C@H](CCN)NC(=O)[C@H](Cc2c[nH]c3ccccc23)NC(=O)[C@H](CCN)NC(=O)[C@@H](CCN)NC(=O)[C@H](CCCN)NC(=O)[C@H](CCN)NC(=O)[C@H](C(C)(C)C)NC(=O)[C@H](CO)NC(=O)[C@H](Cc2c[nH]c3ccccc23)NC(=O)[C@@H]2CCCN2C(=O)[C@H]2CCCN2C(=O)[C@H](CO)NC(=O)[C@H](C)NC1=O` [compound 67] (cyclo(WS[Tle][Dab][Orn][dDab][Dab]W[Dab][Nva]AS[dP]P)) was tested, and the “Hemolysis at 100 μg/ml” value was 1%. For `C[C@@H]1NC(=O)[C@H](C(C)(C)C)NC(=O)[C@H](CCN)NC(=O)[C@H](Cc2c[nH]c3ccccc23)NC(=O)[C@H](CCN)NC(=O)[C@@H](CCN)NC(=O)[C@H](CCCN)NC(=O)[C@H](CCN)NC(=O)[C@H](C(C)(C)C)NC(=O)[C@H](CO)NC(=O)[C@H](Cc2c[nH]c3ccccc23)NC(=O)[C@@H]2CCCN2C(=O)[C@H]2CCCN2C(=O)[C@H](CO)NC1=O` [compound 68] (cyclo(WS[Tle][Dab][Orn][dDab][Dab]W[Dab][Tle]AS[dP]P)), the “Hemolysis at 100 μg/ml” value was 0%. `C[C@@H]1NC(=O)[C@H](C2CCCCC2)NC(=O)[C@H](CCN)NC(=O)[C@H](Cc2c[nH]c3ccccc23)NC(=O)[C@H](CCN)NC(=O)[C@@H](CCN)NC(=O)[C@H](CCCN)NC(=O)[C@H](CCN)NC(=O)[C@H](C(C)(C)C)NC(=O)[C@H](CO)NC(=O)[C@H](Cc2ccc(O)cc2)NC(=O)[C@@H]2CCCN2C(=O)[C@H]2CCCN2C(=O)[C@H](CO)NC1=O` [compound 69] (cyclo(YS[Tle][Dab][Orn][dDab][Dab]W[Dab][Chg]AS[dP]P)) was tested, and the “Hemolysis at 100 μg/ml” value was 7%. `C[C@@H]1NC(=O)[C@H](CC2CCCCC2)NC(=O)[C@H](CCN)NC(=O)[C@H](Cc2c[nH]c3ccccc23)NC(=O)[C@H](CCN)NC(=O)[C@@H](CCN)NC(=O)[C@H](CCCN)NC(=O)[C@H](CCN)NC(=O)[C@H](Cc2ccc(O)cc2)NC(=O)[C@H](CO)NC(=O)[C@H](Cc2c[nH]c3ccccc23)NC(=O)[C@@H]2CCCN2C(=O)[C@H]2CCCN2C(=O)[C@H](CO)NC1=O` [compound 70] (cyclo(WSY[Dab][Orn][dDab][Dab]W[Dab][Cha]AS[dP]P)) was tested, and the “Hemolysis at 100 μg/ml” value was 5%. With `CCC[C@@H]1NC(=O)[C@H](CCN)NC(=O)[C@H](Cc2c[nH]c3ccccc23)NC(=O)[C@H](CCN)NC(=O)[C@@H](CCN)NC(=O)[C@H](CCCN)NC(=O)[C@H](CCN)NC(=O)[C@H](Cc2ccc(O)cc2)NC(=O)[C@H](CO)NC(=O)[C@H](Cc2c[nH]c3ccccc23)NC(=O)[C@@H]2CCCN2C(=O)[C@H]2CCCN2C(=O)[C@H](CO)NC(=O)[C@H](C)NC1=O` [compound 71] (cyclo(WSY[Dab][Orn][dDab][Dab]W[Dab][Nva]AS[dP]P)) the “Hemolysis at 100 μg/ml” value was 0%. For `CC(C)[C@@H]1NC(=O)[C@H](CCN)NC(=O)[C@H](Cc2c[nH]c3ccccc23)NC(=O)[C@H](CCN)NC(=O)[C@@H](CCN)NC(=O)[C@H](CCCN)NC(=O)[C@H](CCN)NC(=O)[C@H](Cc2ccc(O)cc2)NC(=O)[C@H](CO)NC(=O)[C@H](Cc2c[nH]c3ccccc23)NC(=O)[C@@H]2CCCN2C(=O)[C@H]2CCCN2C(=O)[C@H](CO)NC(=O)[C@H](C)NC1=O` [compound 72] (cyclo(WSY[Dab][Orn][dDab][Dab]W[Dab]VAS[dP]P)), the “Hemolysis at 100 μg/ml” value was 0%. With `C[C@@H]1NC(=O)[C@H](C2CCCCC2)NC(=O)[C@H](CCN)NC(=O)[C@H](Cc2c[nH]c3ccccc23)NC(=O)[C@H](CCN)NC(=O)[C@@H](CCN)NC(=O)[C@H](CCCN)NC(=O)[C@H](CCN)NC(=O)[C@H](Cc2ccc(O)cc2)NC(=O)[C@H](CO)NC(=O)[C@H](Cc2ccc(O)cc2)NC(=O)[C@@H]2CCCN2C(=O)[C@H]2CCCN2C(=O)[C@H](CO)NC1=O` [compound 73] (cyclo(YSY[Dab][Orn][dDab][Dab]W[Dab][Chg]AS[dP]P)) the “Hemolysis at 100 μg/ml” value was 0%. `C[C@@H]1NC(=O)[C@H](C(C)(C)C)NC(=O)[C@H](CCN)NC(=O)[C@H](Cc2c[nH]c3ccccc23)NC(=O)[C@H](CCN)NC(=O)[C@H](CCN)NC(=O)[C@H](CCCN)NC(=O)[C@H](CCN)NC(=O)[C@H](Cc2ccc(O)cc2)NC(=O)[C@H](CO)NC(=O)[C@H](Cc2c[nH]c3ccccc23)NC(=O)[C@@H]2CCCN2C(=O)[C@H]2CCCN2C(=O)[C@H](CO)NC1=O` [compound 74] (cyclo(WSY[Dab][Orn][Dab][Dab]W[Dab][Tle]AS[dP]P)) was tested, and the “Hemolysis at 100 μg/ml” value was 0%. In the case of `C[C@@H]1NC(=O)[C@H](Cc2c[nH]c3ccccc23)NC(=O)[C@@H]2CCCN2C(=O)[C@H]2CCCN2C(=O)[C@H](CO)NC(=O)[C@H](C)NC(=O)[C@H](C(C)(C)C)NC(=O)[C@H](CCN)NC(=O)[C@H](Cc2c[nH]c3ccccc23)NC(=O)[C@H](CCN)NC(=O)[C@@H](CCN)NC(=O)[C@H](CCCN)NC(=O)[C@H](CCN)NC(=O)[C@H](Cc2c[nH]c3ccccc23)NC1=O` [compound 75] (cyclo(WAW[Dab][Orn][dDab][Dab]W[Dab][Tle]AS[dP]P)), the “Hemolysis at 100 μg/ml” value is reported as 1%. With `C[C@@H]1NC(=O)[C@H](CC2CCCCC2)NC(=O)[C@H](CCN)NC(=O)[C@H](Cc2c[nH]c3ccccc23)NC(=O)[C@H](CCN)NC(=O)[C@@H](CCN)NC(=O)[C@H](CCCCN)NC(=O)[C@H](CCN)NC(=O)[C@H](Cc2ccc(O)cc2)NC(=O)[C@H](C)NC(=O)[C@H](Cc2c[nH]c3ccccc23)NC(=O)[C@@H]2CCCN2C(=O)[C@H]2CCCN2C(=O)[C@H](CO)NC1=O` [compound 76] (cyclo(WAY[Dab]K[dDab][Dab]W[Dab][Cha]AS[dP]P)) the “Hemolysis at 100 μg/ml” value was 2%. With `C[C@@H]1NC(=O)[C@H](Cc2c[nH]c3ccccc23)NC(=O)[C@@H]2CCCN2C(=O)[C@H]2CCCN2C(=O)[C@H](CO)NC(=O)[C@H](C)NC(=O)[C@H](C2CCCCC2)NC(=O)[C@H](CCN)NC(=O)[C@H](Cc2c[nH]c3ccccc23)NC(=O)[C@H](CCN)NC(=O)[C@@H](CCN)NC(=O)[C@H](CCCN)NC(=O)[C@H](CCN)NC(=O)[C@H](Cc2ccc(O)cc2)NC1=O` [compound 77] (cyclo(WAY[Dab][Orn][dDab][Dab]W[Dab][Chg]AS[dP]P)) the “Hemolysis at 100 μg/ml” value was 1%. For `C[C@@H]1NC(=O)[C@H](Cc2c[nH]c3ccccc23)NC(=O)[C@@H]2CCCN2C(=O)[C@H]2CCCN2C(=O)[C@H](CO)NC(=O)[C@H](C)NC(=O)[C@H](C(C)(C)C)NC(=O)[C@H](CCN)NC(=O)[C@H](Cc2c[nH]c3ccccc23)NC(=O)[C@H](CCN)NC(=O)[C@@H](CCN)NC(=O)[C@H](CCCCN)NC(=O)[C@H](CCN)NC(=O)[C@H](Cc2ccc(O)cc2)NC1=O` [compound 78] (cyclo(WAY[Dab]K[dDab][Dab]W[Dab][Tle]AS[dP]P)), the “Hemolysis at 100 μg/ml” value was 1%. `C[C@@H]1NC(=O)[C@H](C(C)(C)C)NC(=O)[C@H](CCN)NC(=O)[C@H](Cc2c[nH]c3ccccc23)NC(=O)[C@H](CCN)NC(=O)[C@@H](CCN)NC(=O)[C@H](CCCN)NC(=O)[C@H](CCN)NC(=O)[C@H](Cc2c[nH]c3ccccc23)NC(=O)[C@H](CN)NC(=O)[C@H](Cc2c[nH]c3ccccc23)NC(=O)[C@@H]2CCCN2C(=O)[C@H]2CCCN2C(=O)[C@H](CO)NC1=O` [compound 79] (cyclo(W[Dap]W[Dab][Orn][dDab][Dab]W[Dab][Tle]AS[dP]P)) was tested, and the “Hemolysis at 100 μg/ml” value was 1%. In the case of `CCC[C@@H]1NC(=O)[C@@H]2CCCN2C(=O)[C@H]2CCCN2C(=O)[C@H](CO)NC(=O)[C@H](C)NC(=O)[C@H](C(C)(C)C)NC(=O)[C@H](CCN)NC(=O)[C@H](Cc2c[nH]c3ccccc23)NC(=O)[C@H](CCN)NC(=O)[C@@H](CCN)NC(=O)[C@H](CCCN)NC(=O)[C@H](CCN)NC(=O)[C@H](Cc2c[nH]c3ccccc23)NC(=O)[C@H](CO)NC1=O` [compound 80] (cyclo([Nva]SW[Dab][Orn][dDab][Dab]W[Dab][Tle]AS[dP]P)), the “Hemolysis at 100 μg/ml” value is reported as 1%. `CC[C@H](C)[C@@H]1NC(=O)[C@H](CCN)NC(=O)[C@H](Cc2c[nH]c3ccccc23)NC(=O)[C@H](CCN)NC(=O)[C@@H](CCN)NC(=O)[C@H](CCCN)NC(=O)[C@H](CCN)NC(=O)[C@H](Cc2ccc(O)cc2)NC(=O)[C@H](CO)NC(=O)[C@H]([C@@H](C)CC)NC(=O)[C@@H]2CCCN2C(=O)[C@H]2CCCN2C(=O)[C@H](CO)NC(=O)[C@H](C)NC1=O` [compound 81] (cyclo(ISY[Dab][Orn][dDab][Dab]W[Dab]IAS[dP]P)) was tested, and the “Hemolysis at 100 μg/ml” value was 1%. `CC[C@H](C)[C@@H]1NC(=O)[C@@H]2CCCN2C(=O)[C@H]2CCCN2C(=O)[C@H](CO)NC(=O)[C@H](C)NC(=O)[C@H](C(C)(C)C)NC(=O)[C@H](CCN)NC(=O)[C@H](Cc2c[nH]c3ccccc23)NC(=O)[C@H](CCN)NC(=O)[C@@H](CCN)NC(=O)[C@H](CCCCN)NC(=O)[C@H](CCN)NC(=O)[C@H](Cc2ccc(O)cc2)NC(=O)[C@H](CO)NC1=O` [compound 82] (cyclo(ISY[Dab]K[dDab][Dab]W[Dab][Tle]AS[dP]P)) was tested, and the “Hemolysis at 100 μg/ml” value was 1%. In the case of `CC[C@H](C)[C@@H]1NC(=O)[C@@H]2CCCN2C(=O)[C@H]2CCCN2C(=O)[C@H](CO)NC(=O)[C@H](C)NC(=O)[C@H](C(C)(C)C)NC(=O)[C@H](CCN)NC(=O)[C@H](Cc2c[nH]c3ccccc23)NC(=O)[C@H](CCN)NC(=O)[C@@H](CCN)NC(=O)[C@H](CCCN)NC(=O)[C@H](CCN)NC(=O)[C@H](Cc2ccc(N)cc2)NC(=O)[C@H](CO)NC1=O` [compound 83] (cyclo(IS[Phe(4-NH2)][Dab][Orn][dDab][Dab]W[Dab][Tle]AS[dP]P)), the “Hemolysis at 100 μg/ml” value is reported as 0.5%. In the case of `CC[C@H](C)[C@@H]1NC(=O)[C@@H]2CCCN2C(=O)[C@H]2CCCN2C(=O)[C@H](CO)NC(=O)[C@H](C)NC(=O)[C@H](C(C)(C)C)NC(=O)[C@H](CCN)NC(=O)[C@H](Cc2c[nH]c3ccccc23)NC(=O)[C@H](CCN)NC(=O)[C@@H](CCN)NC(=O)[C@H](CCCN)NC(=O)[C@H](CCN)NC(=O)[C@H](Cc2ccc(O)cc2)NC(=O)[C@H]([C@@H](C)O)NC1=O` [compound 84] (cyclo(ITY[Dab][Orn][dDab][Dab]W[Dab][Tle]AS[dP]P)), the “Hemolysis at 100 μg/ml” value is reported as 0%.
